Measurements reported in ChEMBL document CHEMBL1201862, “PubChem BioAssay data set” (2004).
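Each compound was tested at five concentrations against cells in 96-well plates for 48 hours. Abbreviation: GI50, concentration required for 50% inhibition of growth.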 Active and inactive are the calls of the source. Rule as the data show it: active = GI50 up to about 1.1 µM and inactive = higher.

Key:
Assay in all cases: NCI anticancer screen, dose series, 48 h
A498 = tested on: A498
OVCAR-4 = tested on: OVCAR-4
SR = tested on: SR
SK-MEL-2 = tested on: SK-MEL-2
A549 = tested on: A549
SN12C = tested on: SN12C
UO-31 = tested on: UO-31
SNB-78 = tested on: SNB-78
KM12 = tested on: KM12
HCC 2998 = tested on: HCC 2998
LOX IMVI = tested on: LOX IMVI
CCRF-CEM = tested on: CCRF-CEM
HOP-62 = tested on: HOP-62
Malme-3M = tested on: Malme-3M
M14 = tested on: M14
IGROV-1 = tested on: IGROV-1
RXF 393 = tested on: RXF 393
K562 = tested on: K562
UACC-257 = tested on: UACC-257
HOP-92 = tested on: HOP-92
OVCAR-3 = tested on: OVCAR-3
NCI-H23 = tested on: NCI-H23
NCI-H460 = tested on: NCI-H460
HCT-15 = tested on: HCT-15
DMS-114 = tested on: DMS-114
SNB-75 = tested on: SNB-75
HT-29 = tested on: HT-29
SK-OV-3 = tested on: SK-OV-3
M19-MEL = tested on: M19-MEL
DMS-273 = tested on: DMS-273
SW-620 = tested on: SW-620
EKVX = tested on: EKVX
KM-20L2 = tested on: KM-20L2
TK-10 = tested on: TK-10
HCT-116 = tested on: HCT-116
786-0 = tested on: 786-0
SK-MEL-28 = tested on: SK-MEL-28
LXFL 529 = tested on: LXFL 529
MOLT-4 = tested on: MOLT-4
UACC-62 = tested on: UACC-62
SNB-19 = tested on: SNB-19
COLO 205 = tested on: COLO 205
DLD-1 = tested on: DLD-1
HL-60 = tested on: HL-60
OVCAR-8 = tested on: OVCAR-8
SF-539 = tested on: SF-539
SF-268 = tested on: SF-268
RPMI-8226 = tested on: RPMI-8226
SK-MEL-5 = tested on: SK-MEL-5
ACHN = tested on: ACHN
SF-295 = tested on: SF-295
U-251 = tested on: U-251
OVCAR-5 = tested on: OVCAR-5
XF498 = tested on: XF498
HOP-18 = tested on: HOP-18
NCI-H522 = tested on: NCI-H522
NCI-H226 = tested on: NCI-H226
RXF 631 = tested on: RXF 631
CAKI-1 = tested on: CAKI-1

Compound: N#CC1C2CCC3(CC2CCN1C(=O)c1ccccc1)OCCO3 (stereo not given)
- GI50 (A498): > 100 µM (inactive)
- GI50 (OVCAR-4): > 100 µM (inactive)
- GI50 (SR): > 100 µM (inactive)
- GI50 (SK-MEL-2): 2.37 µM (inactive)
- GI50 (A549): > 100 µM (inactive)
- GI50 (SN12C): > 100 µM (inactive)
- GI50 (UO-31): > 100 µM (inactive)
- GI50 (SNB-78): > 100 µM (inactive)
- GI50 (KM12): > 100 µM (inactive)
- GI50 (HCC 2998): > 100 µM (inactive)
- GI50 (LOX IMVI): > 100 µM (inactive)
- GI50 (CCRF-CEM): > 100 µM (inactive)
- GI50 (HOP-62): > 100 µM (inactive)
- GI50 (Malme-3M): > 100 µM (inactive)
- GI50 (M14): > 100 µM (inactive)
- GI50 (IGROV-1): > 100 µM (inactive)
- GI50 (RXF 393): > 100 µM (inactive)
- GI50 (K562): > 100 µM (inactive)
- GI50 (UACC-257): > 100 µM (inactive)
- GI50 (HOP-92): > 100 µM (inactive)
- GI50 (OVCAR-3): > 100 µM (inactive)
- GI50 (NCI-H23): > 100 µM (inactive)
- GI50 (NCI-H460): > 100 µM (inactive)
- GI50 (HCT-15): > 100 µM
- GI50 (DMS-114): > 100 µM (inactive)
- GI50 (SNB-75): > 100 µM (inactive)
- GI50 (HT-29): > 100 µM (inactive)
- GI50 (SK-OV-3): > 100 µM (inactive)
- GI50 (M19-MEL): > 100 µM (inactive)
- GI50 (DMS-273): > 100 µM (inactive)
- GI50 (SW-620): > 100 µM (inactive)
- GI50 (EKVX): > 100 µM (inactive)
- GI50 (KM-20L2): > 100 µM (inactive)
- GI50 (TK-10): > 100 µM (inactive)
- GI50 (HCT-116): > 100 µM (inactive)
- GI50 (786-0): > 100 µM (inactive)
- GI50 (SK-MEL-28): > 100 µM (inactive)
- GI50 (LXFL 529): > 100 µM (inactive)
- GI50 (MOLT-4): > 100 µM (inactive)
- GI50 (UACC-62): > 100 µM (inactive)
- GI50 (SNB-19): > 100 µM (inactive)
- GI50 (COLO 205): > 100 µM (inactive)
- GI50 (DLD-1): > 100 µM (inactive)
- GI50 (HL-60): > 100 µM (inactive)
- GI50 (OVCAR-8): > 100 µM (inactive)
- GI50 (SF-539): > 100 µM (inactive)
- GI50 (SF-268): > 100 µM (inactive)
- GI50 (RPMI-8226): > 100 µM (inactive)
- GI50 (SK-MEL-5): > 100 µM (inactive)
- GI50 (ACHN): > 100 µM (inactive)
- GI50 (SF-295): > 100 µM (inactive)
- GI50 (U-251): > 100 µM (inactive)
- GI50 (OVCAR-5): > 100 µM (inactive)
- GI50 (XF498): > 100 µM (inactive)
- GI50 (HOP-18): > 100 µM (inactive)

Compound: CC(=O)OC1CC2(c3ccccc3)C(=O)c3ccccc3N2O1 (stereo not given)
- GI50 (A498): > 100 µM (inactive)
- GI50 (OVCAR-4): > 100 µM (inactive)
- GI50 (SR): > 100 µM (inactive)
- GI50 (A549): > 100 µM (inactive)
- GI50 (SN12C): > 100 µM (inactive)
- GI50 (UO-31): > 100 µM (inactive)
- GI50 (SNB-78): > 100 µM (inactive)
- GI50 (HCC 2998): > 100 µM (inactive)
- GI50 (CCRF-CEM): > 100 µM (inactive)
- GI50 (HOP-62): > 100 µM (inactive)
- GI50 (Malme-3M): > 100 µM (inactive)
- GI50 (M14): > 100 µM (inactive)
- GI50 (IGROV-1): > 100 µM (inactive)
- GI50 (RXF 393): > 100 µM (inactive)
- GI50 (K562): > 100 µM (inactive)
- GI50 (UACC-257): > 100 µM (inactive)
- GI50 (HOP-92): 65.8 µM (inactive)
- GI50 (NCI-H23): > 100 µM (inactive)
- GI50 (HCT-15): > 100 µM
- GI50 (DMS-114): > 100 µM (inactive)
- GI50 (SNB-75): > 100 µM (inactive)
- GI50 (HT-29): > 100 µM (inactive)
- GI50 (SK-OV-3): > 100 µM (inactive)
- GI50 (M19-MEL): > 100 µM (inactive)
- GI50 (DMS-273): > 100 µM (inactive)
- GI50 (SW-620): > 100 µM (inactive)
- GI50 (EKVX): 78.3 µM (inactive)
- GI50 (KM-20L2): > 100 µM (inactive)
- GI50 (HCT-116): > 100 µM (inactive)
- GI50 (786-0): > 100 µM (inactive)
- GI50 (SK-MEL-28): > 100 µM (inactive)
- GI50 (LXFL 529): > 100 µM (inactive)
- GI50 (MOLT-4): > 100 µM (inactive)
- GI50 (UACC-62): > 100 µM (inactive)
- GI50 (SNB-19): > 100 µM (inactive)
- GI50 (COLO 205): > 100 µM (inactive)
- GI50 (DLD-1): > 100 µM (inactive)
- GI50 (HL-60): > 100 µM (inactive)
- GI50 (NCI-H522): > 100 µM (inactive)
- GI50 (OVCAR-8): > 100 µM (inactive)
- GI50 (SF-539): > 100 µM (inactive)
- GI50 (SF-268): > 100 µM (inactive)
- GI50 (RPMI-8226): > 100 µM (inactive)
- GI50 (SK-MEL-5): > 100 µM (inactive)
- GI50 (ACHN): > 100 µM (inactive)
- GI50 (SF-295): > 100 µM (inactive)
- GI50 (NCI-H226): > 100 µM (inactive)
- GI50 (U-251): > 100 µM (inactive)
- GI50 (XF498): > 100 µM (inactive)
- GI50 (HOP-18): > 100 µM (inactive)

Compound: CCOc1ccc(NC(=O)/C(CC(=O)c2c[n+]([O-])c3ccccc3[n+]2[O-])=N\OCCCc2ccccc2)cc1
- GI50 (A498): > 100 µM (inactive)
- GI50 (OVCAR-4): > 100 µM (inactive)
- GI50 (SR): > 100 µM (inactive)
- GI50 (SK-MEL-2): > 100 µM (inactive)
- GI50 (A549): > 100 µM (inactive)
- GI50 (SN12C): > 100 µM (inactive)
- GI50 (UO-31): > 100 µM (inactive)
- GI50 (SNB-78): > 100 µM (inactive)
- GI50 (KM12): > 100 µM (inactive)
- GI50 (HCC 2998): > 100 µM (inactive)
- GI50 (CCRF-CEM): 42.2 µM (inactive)
- GI50 (HOP-62): > 100 µM (inactive)
- GI50 (Malme-3M): > 100 µM (inactive)
- GI50 (M14): > 100 µM (inactive)
- GI50 (IGROV-1): > 100 µM (inactive)
- GI50 (RXF 393): > 100 µM (inactive)
- GI50 (K562): 62.5 µM (inactive)
- GI50 (UACC-257): > 100 µM (inactive)
- GI50 (HOP-92): 16.9 µM (inactive)
- GI50 (OVCAR-3): > 100 µM (inactive)
- GI50 (NCI-H23): > 100 µM (inactive)
- GI50 (NCI-H460): > 100 µM (inactive)
- GI50 (HCT-15): > 100 µM
- GI50 (DMS-114): > 100 µM (inactive)
- GI50 (SNB-75): > 100 µM (inactive)
- GI50 (HT-29): > 100 µM (inactive)
- GI50 (SK-OV-3): > 100 µM (inactive)
- GI50 (M19-MEL): > 100 µM (inactive)
- GI50 (DMS-273): > 100 µM (inactive)
- GI50 (SW-620): > 100 µM (inactive)
- GI50 (EKVX): > 100 µM (inactive)
- GI50 (KM-20L2): > 100 µM (inactive)
- GI50 (TK-10): > 100 µM (inactive)
- GI50 (HCT-116): > 100 µM (inactive)
- GI50 (786-0): > 100 µM (inactive)
- GI50 (SK-MEL-28): > 100 µM (inactive)
- GI50 (LXFL 529): > 100 µM (inactive)
- GI50 (MOLT-4): > 100 µM (inactive)
- GI50 (UACC-62): > 100 µM (inactive)
- GI50 (SNB-19): > 100 µM (inactive)
- GI50 (COLO 205): > 100 µM (inactive)
- GI50 (DLD-1): > 100 µM (inactive)
- GI50 (HL-60): > 100 µM (inactive)
- GI50 (RXF 631): > 100 µM (inactive)
- GI50 (NCI-H522): > 100 µM (inactive)
- GI50 (OVCAR-8): > 100 µM (inactive)
- GI50 (CAKI-1): > 100 µM (inactive)
- GI50 (SF-539): > 100 µM (inactive)
- GI50 (SF-268): > 100 µM (inactive)
- GI50 (RPMI-8226): > 100 µM (inactive)
- GI50 (ACHN): > 100 µM (inactive)
- GI50 (SF-295): > 100 µM (inactive)
- GI50 (NCI-H226): 44.9 µM (inactive)
- GI50 (U-251): > 100 µM (inactive)
- GI50 (OVCAR-5): > 100 µM (inactive)
